# Test results: article PMC5218480 (PLoS ONE, 2017)
# Test system: MV-4-11 cells
# Test: Gene expression microarray analysis (Affymetrix PrimeView) and GSEA
# Assay type: cell-based, human
# Design: RFU PODN (11730768_x_at) / Fold change /veh PODN (11730768_x_at) / RFU LINC00158 (11744669_a_at) / Fold change /veh LINC00158 (11744669_a_at) / RFU DUSP10 (11751237_a_at) / Fold change /veh DUSP10 (11751237_a_at) / RFU ID3 (11757404_x_at) / Fold change /veh ID3 (11757404_x_at) / RFU PLEKHG5 (11737974_s_at) / Fold change /veh PLEKHG5 (11737974_s_at) / RFU LRRC4B (11730491_at) / Fold change /veh LRRC4B (11730491_at) / RFU GIMAP4 (11747438_a_at) / Fold change /veh GIMAP4 (11747438_a_at) / RFU KRT8 (11758183_x_at) / Fold change /veh KRT8 (11758183_x_at) / RFU CNN1 (11734310_a_at) / Fold change /veh CNN1 (11734310_a_at) / RFU VPS37D (11726825_at) / Fold change /veh VPS37D (11726825_at) / RFU C10orf10 (11716522_x_at) / Fold change /veh C10orf10 (11716522_x_at) / RFU KIR2DL2 /// KIR2DL4 /// KIR2DL5A /// KIR2DL5B /// KIR2DS1 /// KIR2DS2 /// KIR2DS3 /// KIR2DS4 /// KIR3DL3 /// KIR3DL3 /// KIR3DS1 (11738374_at) / Fold change /veh KIR2DL2 /// KIR2DL4 /// KIR2DL5A /// KIR2DL5B /// KIR2DS1 /// KIR2DS2 /// KIR2DS3 /// KIR2DS4 /// KIR3DL3 /// KIR3DL3 /// KIR3DS1 (11738374_at) / RFU C1QL1 (11718748_at) / Fold change /veh C1QL1 (11718748_at) / RFU TMPRSS4 (11747572_a_at) / Fold change /veh TMPRSS4 (11747572_a_at) / RFU HAMP (11756126_x_at) / Fold change /veh HAMP (11756126_x_at) / RFU RNFT2 (11725882_a_at) / Fold change /veh RNFT2 (11725882_a_at) / RFU NR4A2 (11747474_a_at) / Fold change /veh NR4A2 (11747474_a_at) / RFU ABCC12 (11746883_a_at) / Fold change /veh ABCC12 (11746883_a_at) / RFU TMEM136 (11760407_x_at) / Fold change /veh TMEM136 (11760407_x_at) / RFU CLDN22 /// WWC2 (11732394_at) / Fold change /veh CLDN22 /// WWC2 (11732394_at) / RFU HLA-DPB1 (11760878_x_at) / Fold change /veh HLA-DPB1 (11760878_x_at) / RFU SPINT1 (11716480_a_at) / Fold change /veh SPINT1 (11716480_a_at) / RFU GAP43 (11754022_s_at) / Fold change /veh GAP43 (11754022_s_at) / RFU A4GNT (11735810_at) / Fold change /veh A4GNT (11735810_at) / RFU PRB3 (11715151_x_at) / Fold change /veh PRB3 (11715151_x_at) / RFU TUBB4B (11761932_at) / Fold change /veh TUBB4B (11761932_at) / RFU CAPN14 (11732068_a_at) / Fold change /veh CAPN14 (11732068_a_at) / RFU TMCC2 (11721928_a_at) / Fold change /veh TMCC2 (11721928_a_at) / RFU IRGQ (11745062_a_at) / Fold change /veh IRGQ (11745062_a_at) / RFU FAM174B (11720279_a_at) / Fold change /veh FAM174B (11720279_a_at) / RFU TMPRSS4 (11748680_a_at) / Fold change /veh TMPRSS4 (11748680_a_at) / RFU FAM212B (11763350_a_at) / Fold change /veh FAM212B (11763350_a_at) / RFU PLEKHG5 (11743358_a_at) / Fold change /veh PLEKHG5 (11743358_a_at) / RFU ZSCAN30 (11745921_a_at) / Fold change /veh ZSCAN30 (11745921_a_at) / RFU CMKLR1 (11741424_a_at) / Fold change /veh CMKLR1 (11741424_a_at) / RFU LOC101060620 /// MAPK8IP1 (11723275_at) / Fold change /veh LOC101060620 /// MAPK8IP1 (11723275_at) / RFU SPTSSB (11747773_x_at) / Fold change /veh SPTSSB (11747773_x_at) / RFU PRSS12 (11739890_at) / Fold change /veh PRSS12 (11739890_at) / RFU BIN1 (11741810_x_at) / Fold change /veh BIN1 (11741810_x_at) / RFU WNT11 (11732464_a_at) / Fold change /veh WNT11 (11732464_a_at) / RFU C10orf10 (11716521_a_at) / Fold change /veh C10orf10 (11716521_a_at) / RFU C5orf56 (11738089_at) / Fold change /veh C5orf56 (11738089_at) / RFU CYB561 (11721691_x_at) / Fold change /veh CYB561 (11721691_x_at) / RFU ANKRD19P (11752326_a_at) / Fold change /veh ANKRD19P (11752326_a_at) / RFU OR2T12 /// OR2T33 /// OR2T8 (11738714_s_at) / Fold change /veh OR2T12 /// OR2T33 /// OR2T8 (11738714_s_at) / RFU VCAN (11748164_a_at) / Fold change /veh VCAN (11748164_a_at) / RFU JSRP1 (11732532_at) / Fold change /veh JSRP1 (11732532_at) / RFU KRTAP10-11 (11738290_x_at) / Fold change /veh KRTAP10-11 (11738290_x_at) / RFU MYO3A (11730013_a_at) / Fold change /veh MYO3A (11730013_a_at) / RFU EBF3 (11725865_a_at) / Fold change /veh EBF3 (11725865_a_at) / RFU CAMK2N1 (11719241_x_at) / Fold change /veh CAMK2N1 (11719241_x_at) / RFU C5orf56 (11738088_a_at) / Fold change /veh C5orf56 (11738088_a_at) / RFU OLFML3 (11715873_a_at) / Fold change /veh OLFML3 (11715873_a_at) / RFU LOC100653217 /// NTM (11731650_a_at) / Fold change /veh LOC100653217 /// NTM (11731650_a_at) / RFU MAPK11 (11762145_a_at) / Fold change /veh MAPK11 (11762145_a_at) / RFU FIZ1 (11724087_x_at) / Fold change /veh FIZ1 (11724087_x_at) / RFU OASL (11726364_x_at) / Fold change /veh OASL (11726364_x_at) / RFU SOX15 (11748057_x_at) / Fold change /veh SOX15 (11748057_x_at) / RFU CD79A (11719716_a_at) / Fold change /veh CD79A (11719716_a_at) / RFU HIST1H1D (11736915_at) / Fold change /veh HIST1H1D (11736915_at) / RFU CASKIN2 (11723855_a_at) / Fold change /veh CASKIN2 (11723855_a_at) / RFU LOC730098 (11760151_x_at) / Fold change /veh LOC730098 (11760151_x_at) / RFU OR4N2 (11742367_at) / Fold change /veh OR4N2 (11742367_at) / RFU PRRT2 (11749266_a_at) / Fold change /veh PRRT2 (11749266_a_at) / RFU SNX32 (11753110_a_at) / Fold change /veh SNX32 (11753110_a_at) / RFU CDHR5 (11726645_a_at) / Fold change /veh CDHR5 (11726645_a_at) / RFU RCAN1 (11760418_a_at) / Fold change /veh RCAN1 (11760418_a_at) / RFU FAM167A (11723789_a_at) / Fold change /veh FAM167A (11723789_a_at) / RFU FAM26E (11764081_at) / Fold change /veh FAM26E (11764081_at) / RFU ISYNA1 (11749810_s_at) / Fold change /veh ISYNA1 (11749810_s_at) / RFU ACY1 (11761880_at) / Fold change /veh ACY1 (11761880_at) / RFU 11764098_at / Fold change /veh 11764098_at / RFU SAMD14 (11745864_x_at) / Fold change /veh SAMD14 (11745864_x_at) / RFU NPB (11741838_a_at) / Fold change /veh NPB (11741838_a_at) / RFU TMPRSS6 (11731388_a_at) / Fold change /veh TMPRSS6 (11731388_a_at) / RFU KRTAP10-2 (11738614_at) / Fold change /veh KRTAP10-2 (11738614_at) / RFU ARHGAP8 /// PRR5-ARHGAP8 (11727945_x_at) / Fold change /veh ARHGAP8 /// PRR5-ARHGAP8 (11727945_x_at) / RFU KRTAP5-7 /// NADSYN1 (11734609_at) / Fold change /veh KRTAP5-7 /// NADSYN1 (11734609_at) / RFU RASL12 (11751679_a_at) / Fold change /veh RASL12 (11751679_a_at) / RFU CDKN2B (11736163_a_at) / Fold change /veh CDKN2B (11736163_a_at) / RFU PRF1 (11729649_at) / Fold change /veh PRF1 (11729649_at) / RFU, ZNF638 /// ZNF638-IT1 / Fold change vs veh, ZNF638 /// ZNF638-IT1 / RFU, PANK3 / Fold change vs veh, PANK3 / RFU, SH3YL1 / Fold change vs veh, SH3YL1 / RFU, ZEB2 / Fold change vs veh, ZEB2 / RFU, NRIP1 / Fold change vs veh, NRIP1 / RFU, PTTG1IP / Fold change vs veh, PTTG1IP / RFU, CAPN2 / Fold change vs veh, CAPN2 / RFU, MED14 / Fold change vs veh, MED14 / RFU, SNORA58 / Fold change vs veh, SNORA58 / RFU, C1orf63 / Fold change vs veh, C1orf63 / RFU, LRRFIP1 / Fold change vs veh, LRRFIP1 / RFU, NDUFAF7 / Fold change vs veh, NDUFAF7 / RFU, SLC12A2 / Fold change vs veh, SLC12A2 / RFU, IBTK / Fold change vs veh, IBTK / RFU, ESF1 / Fold change vs veh, ESF1 / Fold change vs veh, TMEM50B / RFU, TAOK1 / Fold change vs veh, TAOK1 / RFU, ACBD3 / Fold change vs veh, ACBD3 / RFU, TMA16 / Fold change vs veh, TMA16 / RFU, RWDD3 / Fold change vs veh, RWDD3 / RFU, BCAT1 / Fold change vs veh, BCAT1 / RFU, EDEM3 / Fold change vs veh, EDEM3 / RFU, TMEM33 / Fold change vs veh, TMEM33 / RFU, WDR75 / Fold change vs veh, WDR75 / RFU, AHCTF1 / Fold change vs veh, AHCTF1 / RFU, TFRC / Fold change vs veh, TFRC / RFU, ZDHHC17 / Fold change vs veh, ZDHHC17 / RFU, NOM1 / Fold change vs veh, NOM1 / RFU, ARL8B / Fold change vs veh, ARL8B / RFU, ZBTB11 / Fold change vs veh, ZBTB11 / RFU, TAMM41 / Fold change vs veh, TAMM41 / RFU, KIAA1704 /// LOC100996395 / Fold change vs veh, KIAA1704 /// LOC100996395 / RFU, ING1 / Fold change vs veh, ING1 / RFU, TRMT61B / Fold change vs veh, TRMT61B / RFU, FUBP3 / Fold change vs veh, FUBP3 / RFU, TP53 / Fold change vs veh, TP53 / RFU, TNKS2 / Fold change vs veh, TNKS2 / RFU, ZFP14 / Fold change vs veh, ZFP14 / RFU, ACTR2 / Fold change vs veh, ACTR2 / RFU, PPP3R1 / Fold change vs veh, PPP3R1 / RFU, PIK3R1 / Fold change vs veh, PIK3R1 / RFU, HNRNPA1 / Fold change vs veh, HNRNPA1 / RFU, RNF170 / Fold change vs veh, RNF170 / RFU, ZNF28 / Fold change vs veh, ZNF28 / RFU, RNGTT / Fold change vs veh, RNGTT / RFU, OGT / Fold change vs veh, OGT / RFU, BRD1 / Fold change vs veh, BRD1 / RFU, MARS / Fold change vs veh, MARS / RFU, ZNF655 / Fold change vs veh, ZNF655 / RFU, FAHD1 / Fold change vs veh, FAHD1 / RFU, BDP1 / Fold change vs veh, BDP1 / RFU, LRRCC1 / Fold change vs veh, LRRCC1 / RFU, ARID1A / Fold change vs veh, ARID1A / RFU, ZNF146 / Fold change vs veh, ZNF146 / RFU, ZNF330 / Fold change vs veh, ZNF330 / RFU, GPN3 / Fold change vs veh, GPN3 / RFU, C9orf123 / Fold change vs veh, C9orf123 / RFU, N4BP2L2 / Fold change vs veh, N4BP2L2 / RFU, ARFIP1 / Fold change vs veh, ARFIP1 / RFU, FAM179B / Fold change vs veh, FAM179B / RFU, BCL10 / Fold change vs veh, BCL10 / RFU, UHRF1BP1L / Fold change vs veh, UHRF1BP1L / RFU, BET1 / Fold change vs veh, BET1 / RFU, CNOT2 / Fold change vs veh, CNOT2 / RFU, ZNF268 / Fold change vs veh, ZNF268 / Fold change vs veh, ZNF507 / RFU, DGCR2 / Fold change vs veh, DGCR2 / RFU, WDSUB1 / Fold change vs veh, WDSUB1 / Fold change vs veh, HSP90B1 /// MIR3652 / RFU, ADSS / Fold change vs veh, ADSS / RFU, GK / Fold change vs veh, GK / RFU, ZNF148 / Fold change vs veh, ZNF148 / RFU, TAF9 / Fold change vs veh, TAF9 / RFU, SLC1A5 / Fold change vs veh, SLC1A5 / RFU, SLMO2 / Fold change vs veh, SLMO2 / RFU, ABCC4 / Fold change vs veh, ABCC4 / RFU, LOC101060439 /// RAP1B / Fold change vs veh, LOC101060439 /// RAP1B / RFU, RFX7 / Fold change vs veh, RFX7 / RFU, GTPBP10 / Fold change vs veh, GTPBP10 / RFU, CNEP1R1 / Fold change vs veh, CNEP1R1 / RFU, BIVM-ERCC5 /// ERCC5 / Fold change vs veh, BIVM-ERCC5 /// ERCC5 / RFU, ILF3 / Fold change vs veh, ILF3 / RFU 11762660_at / Fold change /veh 11762660_at / RFU VCAN (11757783_s_at) / Fold change /veh VCAN (11757783_s_at) / RFU DDX43 (11728927_at) / Fold change /veh DDX43 (11728927_at) / RFU KRT8 (11758188_x_at) / Fold change /veh KRT8 (11758188_x_at) / RFU NKD1 (11759106_at) / Fold change /veh NKD1 (11759106_at) / RFU SRD5A1 (11742802_a_at) / Fold change /veh SRD5A1 (11742802_a_at) / RFU TPSAB1 /// TPSB2 (11721975_s_at) / Fold change /veh TPSAB1 /// TPSB2 (11721975_s_at) / RFU GSTM3 (11746129_a_at) / Fold change /veh GSTM3 (11746129_a_at) / RFU IL23R (11737362_x_at) / Fold change /veh IL23R (11737362_x_at) / RFU TMEM51 (11727254_a_at) / Fold change /veh TMEM51 (11727254_a_at) / RFU PIWIL2 (11732686_x_at) / Fold change /veh PIWIL2 (11732686_x_at) / RFU ORM1 (11744905_x_at) / Fold change /veh ORM1 (11744905_x_at) / RFU CCDC152 (11743942_at) / Fold change /veh CCDC152 (11743942_at) / RFU ECM1 (11717891_a_at) / Fold change /veh ECM1 (11717891_a_at) / RFU IL23R (11748794_a_at) / Fold change /veh IL23R (11748794_a_at) / RFU TNFAIP8L3 (11732012_x_at) / Fold change /veh TNFAIP8L3 (11732012_x_at) / RFU MBOAT4 (11741988_at) / Fold change /veh MBOAT4 (11741988_at) / RFU 11764193_at / Fold change /veh 11764193_at / RFU TMEM53 (11763286_at) / Fold change /veh TMEM53 (11763286_at) / RFU MAGEB2 (11727129_at) / Fold change /veh MAGEB2 (11727129_at) / RFU TMEM200A (11744735_a_at) / Fold change /veh TMEM200A (11744735_a_at) / RFU CCDC152 (11751479_a_at) / Fold change /veh CCDC152 (11751479_a_at) / RFU FAM211A (11726209_a_at) / Fold change /veh FAM211A (11726209_a_at) / RFU RGS16 (11746705_a_at) / Fold change /veh RGS16 (11746705_a_at) / RFU VCAN (11755009_s_at) / Fold change /veh VCAN (11755009_s_at) / RFU RHOB (11743442_s_at) / Fold change /veh RHOB (11743442_s_at) / RFU RGS16 (11720943_a_at) / Fold change /veh RGS16 (11720943_a_at) / RFU RGS16 (11720944_at) / Fold change /veh RGS16 (11720944_at) / RFU, VPS4B / Fold change vs veh, VPS4B / RFU, CREB1 / Fold change vs veh, CREB1 / RFU, DNAJC13 / Fold change vs veh, DNAJC13 / RFU, GNAQ / Fold change vs veh, GNAQ / RFU, CDK5R1 / Fold change vs veh, CDK5R1 / RFU, ZRANB3 / Fold change vs veh, ZRANB3 / RFU, CUL4A / Fold change vs veh, CUL4A / RFU, CCNY / Fold change vs veh, CCNY / RFU, UFL1 / Fold change vs veh, UFL1 / RFU, COG3 / Fold change vs veh, COG3 / RFU, DIAPH2 / Fold change vs veh, DIAPH2 / RFU, SKA2 / Fold change vs veh, SKA2 / RFU, AFF3 / Fold change vs veh, AFF3 / RFU, LMF1 / Fold change vs veh, LMF1 / RFU, IPO11 / Fold change vs veh, IPO11 / RFU, DFFB / Fold change vs veh, DFFB / RFU, FOXP1 / Fold change vs veh, FOXP1 / RFU, CARD8 / Fold change vs veh, CARD8 / RFU, STRN3 / Fold change vs veh, STRN3 / RFU, ADK / Fold change vs veh, ADK / RFU, RASSF2 / Fold change vs veh, RASSF2 / RFU, WIPF1 / Fold change vs veh, WIPF1 / RFU, LARP1B / Fold change vs veh, LARP1B / RFU, RASA1 / Fold change vs veh, RASA1 / RFU, RB1 / Fold change vs veh, RB1 / RFU, PPFIA1 / Fold change vs veh, PPFIA1 / RFU, MAT2A / Fold change vs veh, MAT2A / RFU, CCT5 / Fold change vs veh, CCT5 / RFU, WDR92 / Fold change vs veh, WDR92 / RFU, CUX1 / Fold change vs veh, CUX1 / RFU, TTC7A / Fold change vs veh, TTC7A / RFU, TMEM135 / Fold change vs veh, TMEM135 / RFU, DEPTOR / Fold change vs veh, DEPTOR / RFU, CPM / Fold change vs veh, CPM / RFU, DNAJB6 / Fold change vs veh, DNAJB6 / RFU, CACNA2D3 / Fold change vs veh, CACNA2D3 / RFU, DTX4 / Fold change vs veh, DTX4 / RFU, TFCP2 / Fold change vs veh, TFCP2 / RFU, GMCL1 /// GMCL1P1 / Fold change vs veh, GMCL1 /// GMCL1P1 / RFU, AEBP2 / Fold change vs veh, AEBP2 / RFU, SNHG1 /// SNORD22 /// SNORD25 /// SNORD26 /// SNORD27 /// SNORD28 /// SNORD29 /// SNORD31 / Fold change vs veh, SNHG1 /// SNORD22 /// SNORD25 /// SNORD26 /// SNORD27 /// SNORD28 /// SNORD29 /// SNORD31 / Fold change (Aza/veh), C12orf56 (ProbeSet 11735607_a_at) / Fold change (ACY-1035/veh), C12orf56 (ProbeSet 11735607_a_at) / Fold change (Aza/veh), FGFR1OP (ProbeSet 11751329_s_at) / Fold change (ACY-1035/veh), FGFR1OP (ProbeSet 11751329_s_at) / Fold change (Aza/veh), VPS36 (ProbeSet 11739960_a_at) / Fold change (ACY-1035/veh), VPS36 (ProbeSet 11739960_a_at) / RFU SYPL1 (11715823_x_at) / Fold change /veh SYPL1 (11715823_x_at) / RFU IGFBP7 (11715501_s_at) / Fold change /veh IGFBP7 (11715501_s_at) / RFU REEP3 (11722064_at) / Fold change /veh REEP3 (11722064_at) / RFU IGLL1 (11728026_x_at) / Fold change /veh IGLL1 (11728026_x_at): dose or concentration left out as unconfirmed
# Details: MV-4-11 cells, 48 hours
smiles,measurement,value
Nc1ncn([C@@H]2O[C@H](CO)[C@@H](O)[C@H]2O)c(=O)n1 [azacitidine],Fold change /veh IGFBP7 (11715501_s_at),0.50
